Read-outs that look alike come from different tables or passages of the source.
How the values were obtained:
[1] = test system: N-myristoylation in WT 3D7 parasites; assay: YnMyr metabolic labelling of NMT substrates; type: cell-based, P. falciparum; conditions: 140 nM, 36–45 h post-invasion
Method: Synchronized populations of stage-specific parasites were labelled with 25 μM of YnMyr for the specified length of time. Parasites were then lysed in 0.15 % saponin for 10 min on ice. The pellet was washed until the supernatant was colorless and then stored at -80°C. Thawed parasite pellets were extracted in 1 % Triton X-100, 0.1 % SDS in PBS on ice for 20 min with 1 min sonication. The protein concentration of the lysate was measured by BCA assay and adjusted to 1 mg/mL with PBS. The capture reagent was ‘clicked’ (100 μM capture reagent AzRB2, 1 mM CuSO4, 1 mM TCEP, 100 μM TBTA), the reaction was quenched with EDTA, and then precipitated proteins were washed with ice cold methanol as described previously ([Heal et al., 2011], [Wright et al., 2015]). Proteins were re-dissolved in 2 % SDS, 10 mM DTT, in PBS at 1 mg/mL and heated for 7 min at 95°C in sample loading buffer prior to SDS-PAGE.
Following the click reaction, the protein solution in PBS containing 2 % SDS, 10 mM DTT was treated with 0.2 M NaOH for 1 h at room temperature with vortexing. Samples were neutralized with an equivalent volume and concentration of HCl and diluted with PBS to 1 mg/mL prior to gel analysis.

[2] = test system: N-myristoylation in PfNMT[G386E] parasite clones; type: cell-based; conditions: 140 nM, 36–45 h post-invasion
[3] = test system: P. falciparum 3D7 parasites; assay: Parasite development and GAP45 immunofluorescence at four times EC50; type: cell-based; conditions: at four times the EC50 value (140 nM), 45 h PI
Method: For IFA, slides were air dried, fixed in 4 % paraformaldehyde (PFA) in PBS for 10–20 min, permeabilized in 0.1 % Triton X-100 in PBS for 10 min, and blocked with 3 % BSA in PBS for at least 30 min at 4°C. GAP45 detection was achieved using a primary rabbit anti-GAP45-antibody ([Rees-Channer et al., 2006]). Slides were mounted in ProLong® Gold Antifade mounting medium containing DAPI (4’,6-diamidino-2-phenylindole), and viewed on a Nikon Eclipse Ni-E imaging system with a Hamamatsu Orca-flash 4.0 digital camera and a Plan apo λ 100x/1.45 oil immersion objective. Images were captured using Nikon’s NIS-Elements imaging software generating Z-stack images of individual parasites, using deconvolution options and exporting the image as a tiff file, which was further edited using Adobe Photoshop.

PvNMT[G386E] [4] = target: T1, PvNMT[G386E] (Plasmodium vivax, UniProt A5K1A2, G386E); assay: Thermal shift assay; type: binding, P. vivax; conditions: 5 μM compound
T1 sequence (A5K1A2 27-410 G386E): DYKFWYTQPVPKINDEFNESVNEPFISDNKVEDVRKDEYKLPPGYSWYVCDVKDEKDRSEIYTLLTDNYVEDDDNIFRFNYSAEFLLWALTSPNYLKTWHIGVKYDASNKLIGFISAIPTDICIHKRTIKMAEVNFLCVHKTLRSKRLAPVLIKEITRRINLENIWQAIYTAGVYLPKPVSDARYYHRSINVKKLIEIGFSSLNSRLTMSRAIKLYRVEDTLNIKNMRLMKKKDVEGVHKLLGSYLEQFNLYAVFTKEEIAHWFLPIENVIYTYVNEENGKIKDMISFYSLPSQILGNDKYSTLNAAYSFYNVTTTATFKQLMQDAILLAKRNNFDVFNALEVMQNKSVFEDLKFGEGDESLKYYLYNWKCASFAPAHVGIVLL

[5] = test system: P. falciparum 3D7 PfNMT[G386E] clones; assay: microbe, parasite or virus in culture; type: cell-based; conditions: for EC50: Plasmodium falciparum
PvNMT[G386E] [6] = target: T1, PvNMT[G386E]; type: binding, P. vivax
[7] = test system: IMP-1002-resistant P. falciparum Dd2 parasites (uncloned population and clones, NMT G386E); assay: microbe, parasite or virus in culture; type: cell-based; conditions: for EC50: Plasmodium falciparum, DD2, 72 h
PvNMT[G386E] [8] = target: T1, PvNMT[G386E]; assay: biochemical; type: biochemical, P. vivax
[9] = test system: P. falciparum 3D7 parasites (PfNMT[WT]); assay: microbe, parasite or virus in culture; type: cell-based; conditions: for EC50: Plasmodium falciparum
HsNMT2 = HsNMT2 (Homo sapiens, UniProt O60551); type: biochemical; conditions: selectivity, CPM assay
Sequence of HsNMT2 (O60551 whole entry): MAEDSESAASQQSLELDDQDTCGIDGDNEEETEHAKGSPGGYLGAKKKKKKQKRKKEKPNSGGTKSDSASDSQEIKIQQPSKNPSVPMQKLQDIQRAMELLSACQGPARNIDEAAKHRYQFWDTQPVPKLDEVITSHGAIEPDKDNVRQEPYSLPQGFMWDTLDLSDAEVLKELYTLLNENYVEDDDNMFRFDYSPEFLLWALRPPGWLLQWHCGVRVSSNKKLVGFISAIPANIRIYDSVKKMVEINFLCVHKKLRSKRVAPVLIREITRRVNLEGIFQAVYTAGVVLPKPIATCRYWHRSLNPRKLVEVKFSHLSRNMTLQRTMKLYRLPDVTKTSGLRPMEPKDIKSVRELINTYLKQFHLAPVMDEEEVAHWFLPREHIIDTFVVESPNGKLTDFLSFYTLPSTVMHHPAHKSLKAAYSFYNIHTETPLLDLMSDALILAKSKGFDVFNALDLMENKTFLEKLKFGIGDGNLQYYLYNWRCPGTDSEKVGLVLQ

HsNMT1 = HsNMT1 (Homo sapiens, UniProt P30419); type: biochemical; conditions: selectivity, CPM assay
Sequence of HsNMT1 (P30419 whole entry): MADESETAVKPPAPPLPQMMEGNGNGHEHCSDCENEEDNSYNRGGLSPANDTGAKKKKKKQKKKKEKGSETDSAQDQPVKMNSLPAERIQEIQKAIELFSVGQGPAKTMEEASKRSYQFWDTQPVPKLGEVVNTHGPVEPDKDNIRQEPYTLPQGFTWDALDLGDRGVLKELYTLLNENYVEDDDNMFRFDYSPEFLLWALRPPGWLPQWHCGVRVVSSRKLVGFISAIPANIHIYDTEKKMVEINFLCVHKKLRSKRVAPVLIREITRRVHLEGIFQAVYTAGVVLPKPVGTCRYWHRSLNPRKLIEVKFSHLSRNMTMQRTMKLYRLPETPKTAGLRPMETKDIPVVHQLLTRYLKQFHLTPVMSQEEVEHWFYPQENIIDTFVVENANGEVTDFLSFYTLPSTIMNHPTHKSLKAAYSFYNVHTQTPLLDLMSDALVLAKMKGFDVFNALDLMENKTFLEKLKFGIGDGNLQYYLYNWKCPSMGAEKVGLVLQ

PfNMT[G386E] parasites = assay: microbe, parasite or virus in culture; type: cell-based
WT 3D7 parasites = assay: Flow cytometry of Hoechst-stained parasites (number of nuclei); type: cell-based, P. falciparum; conditions: 140 nM for 45 h from ring stage
Method: Synchronized parasites were incubated with DMSO or NMTi and samples were fixed in 2% PFA, 0.2 % glutaraldehyde for 1 hour at 45 h PI. Subsequently samples were washed in PBS and labelled with 1:500 of 10 mg/mL Hoechst 33342 for 10 min with a subsequent wash in PBS. For analysis, a Flow Cytometry CL1 Fortessa D Analyzer from BD with FACSDiva software v8.0.1 was used with the 450-50 filter counting 50,000 RBC per sample. Data were analyzed using FlowJo LLC 2006-2015 to determine the median fluorescence intensity (MFI) of each sample after gating out the RBC population using an RBC only sample as a control. The MFI of each sample was divided by the MFI of a control sample of synchronized rings with a known MFI of one nucleus.

PvNMT[WT] [10] = target: T2, PvNMT[WT] (Plasmodium vivax, UniProt A5K1A2); type: binding; conditions: SPR sensorgrams
T2 construct: hexaHis (3C protease-cleavable) (N); made in house; host or cells: E. coli Rosetta-gami (DE3), pET11a
T2 sequence (A5K1A2 entry or part of it): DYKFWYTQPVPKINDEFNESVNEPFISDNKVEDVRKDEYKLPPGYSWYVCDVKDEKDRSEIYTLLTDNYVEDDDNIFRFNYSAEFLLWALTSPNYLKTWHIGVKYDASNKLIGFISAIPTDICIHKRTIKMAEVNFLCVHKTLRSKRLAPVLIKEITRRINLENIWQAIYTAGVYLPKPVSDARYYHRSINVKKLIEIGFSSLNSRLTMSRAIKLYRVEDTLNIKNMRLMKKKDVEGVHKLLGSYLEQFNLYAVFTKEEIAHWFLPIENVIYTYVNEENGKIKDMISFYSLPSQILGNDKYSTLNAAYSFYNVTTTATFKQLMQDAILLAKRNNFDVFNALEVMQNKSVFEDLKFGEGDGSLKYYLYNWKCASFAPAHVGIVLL

[11] = test system: P. falciparum Dd2 parental line; assay: microbe, parasite or virus in culture; type: cell-based; conditions: EC50 after 72 h (n = 3)
PvNMT[WT] [12] = target: T2, PvNMT[WT]; assay: biochemical; type: binding; conditions: 5 μM compound, absence of MyrCoA; read-out: thermal stabilization (ΔTm) of PvNMT[WT]
[13] = test system: P. falciparum 3D7 parasites; parameters: method as in Wright et al., 2014; conditions: four times the EC50 concentration from beginning of 48-h cycle, ref Wright et al., 2014; cited from earlier work
[14] = 3D7, read-out: Growth assay PfNMT[G386E] Clone 1 EC50
[15] = 3D7, read-out: Growth assay PfNMT[G386E] Clone 2 EC50
[16] = 3D7, read-out: Growth assay PfNMT[WT] EC50

## Cc1nn(C)c(C)c1CCOc1cc(F)ccc1-c1ccc2c(c1)c(CN(C)C)nn2C [IMP-1002, 1-(5-(4-fluoro-2-(2-(1,3,5-trimethyl-1H-pyrazol-4-yl)ethoxy)phenyl)-1-methyl-1H-indazol-3-yl)-N,N-dimethylmethanamine]
[1]
  YnMyr labeling in WT parasites: clear decrease in YnMyr labeling
[2]
  YnMyr labeling in PfNMT[G386E] parasite clones: no reduction in labeling
[3]
  accumulation of NMT substrate GAP45: inhibiting accumulation
PvNMT[G386E] [4]; absence of MyrCoA
  thermal stabilization (ΔTm) of PvNMT[G386E]: 1.8 °C
PvNMT[G386E] [4]; absence of MyrCoA (Table S4A), in favor of WT
  ΔΔTm between PvNMT[WT] and PvNMT[G386E]: > 7.0 °C
[5]; EC50 of [G386E]/[WT], Clone 1
  Ratio PfNMT[G386]/PfNMT[WT] EC50, Clone 1: 24
[5]; EC50 of [G386E]/[WT], Clone 2
  Ratio PfNMT[G386]/PfNMT[WT] EC50, Clone 2: 21
[5]; [14]
  EC50: 230 nM
[5]; [15]
  EC50: 201 nM
PvNMT[G386E] [6]
  decrease in affinity (KD PvNMT[G386E] / KD PvNMT[WT]): approximately 5 fold
[7]; read-out: EC50 Clone 01
  EC50: 270 ± 40 nM
[7]; read-out: EC50 Clone 02
  EC50: 300 ± 140 nM
[7]; read-out: EC50 Clone 03
  EC50: 240 ± 63 nM
[7]; read-out: EC50 uncloned population
  EC50: 320 ± 50 nM
[7]; resistant Dd2 clones versus Dd2 parental line
  increase in EC50 of IMP-1002-resistant clones: 14 fold
PvNMT[G386E] [8]
  IC50 ratio of G386E/WT on average: 2.6
  Ratio PvNMT[G386E]/PvNMT[WT] IC50, Replicate 1: 3.1
  Ratio PvNMT[G386E]/PvNMT[WT] IC50, Replicate 2: 3.4
  Ratio PvNMT[G386E]/PvNMT[WT] IC50, Replicate 3: 1.4
PvNMT[G386E] [8]; PvNMT[G386E] IC50, Replicate 1
  IC50: 6 nM
PvNMT[G386E] [8]; PvNMT[G386E] IC50, Replicate 2
  IC50: 7.1 nM
PvNMT[G386E] [8]; PvNMT[G386E] IC50, Replicate 3
  IC50: 6.9 nM
[9]
  fold more potent in killing parasites than DDD85646: 4 fold
[9]; [16]
  EC50: 9.6 nM
[9]; 3D7 parasites, initial EC50 determination (Figures 2A, S2A), read-out: parasite growth EC50
  EC50: 34 nM
HsNMT2
  HsNMT2/PvNMT fold difference in IC50: 3.84
HsNMT1
  HsNMT1/PvNMT fold difference in IC50: 2.32
PfNMT[G386E] parasites; 140 nM for 45 h from ring stage
  number of nuclei versus DMSO control, PfNMT[G386E] parasites: no difference
PfNMT[G386E] parasites; Plasmodium falciparum, read-out: inhibition of [G386E] parasites
  inhibition at 0.14 µM: 0%
WT 3D7 parasites
  number of nuclei versus DMSO control, WT parasites: reduced number of nuclei
PvNMT[WT] [10]
  dissociation rate with PvNMT[WT]: slow dissociation rate
[11]
  EC50: 35 nM
[11]; Plasmodium falciparum, DD2, 72 h
  EC50: 20.4 ± 4.9 nM
PvNMT[WT] [12]
  ΔTm at 5 µM: > 8.8 °C

## Cc1nn(C)c(C)c1NS(=O)(=O)c1c(Cl)cc(-c2ccnc(N3CCNCC3)c2)cc1Cl [DDD85646, reference compound]
[5]; [14]
  EC50: 91 nM
[5]; [15]
  EC50: 103 nM
[9]; [16]
  EC50: 69 nM
[13]
  nuclei at stalled pseudoschizont stage: 4–6 nuclei
